# Assay results from patent EP4361137A1, “PRUNE1 INHIBITORS AND THERAPEUTIC USE THEREOF” (CEINGE Biotecnologie Avanzate Franco Salvatore s.c. a r.l., priority 2022, dated 2024).
# Columns and labels:
# human PRUNE1 = assay: qPCR of PRUNE1 mRNA in D425-MED cells; type: cell-based; conditions: 10 µM, 24 hours, relative to vehicle (2^-ΔΔCt)
# Experimental: D425.MED and MMTV-Prune1/Wnt1 cells were plated and treated with increasing concentrations of LEO-AA7.5(S)T for 24 hours. Water-treated cells were used as negative control for the experiments.
# RNA samples were extracted using TRIzol RNA Isolation Reagent (15596026, Invitrogen), according to the manufacturer instructions. Reverse transcription was performed with 5× All-In-One RT MasterMix (g592; ABM), according to the manufacturer instructions. The reverse transcription products (cDNA) were amplified by qRT-PCR using an RT-PCR system (7900; Applied Biosystems, Foster City, CA, USA). The cDNA preparation was through the cycling method, by incubating the complete reaction mix as follows: cDNA reactions: (37 °C for 10 min and 60 °C for 15 min); Heat-inactivation: 95 °C for 3 min; Hold stage: 4 °C. The targets were detected with the SYBR green approach, using BrightGreen BlasTaq 2× PCR MasterMix (G895; ABM). Human ACTB was used as the housekeeping gene to normalize the quantification cycle (Cq) values of the other genes. […] Relative expression of the target genes was determined using the 2^-ΔΔCq method, as the fold increase compared with the controls. […]
# c-Prune1 (354-453) = biological target: T1, c-Prune1 (354-453) (Homo sapiens, UniProt Q86TP1); assay: NMR and microscale thermophoresis interaction study; type: binding; conditions: KD not given
# T1 construct: 20 µM of c-Prune1 (354-453) protein was labelled with 60 µM of NT-647-NHS reactive dye; made in house
# T1 sequence (Q86TP1 354-453): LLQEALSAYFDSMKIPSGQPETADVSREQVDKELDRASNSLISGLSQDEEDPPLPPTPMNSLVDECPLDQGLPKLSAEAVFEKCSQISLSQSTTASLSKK
# Experimental: For interaction studies, samples (total volume, 600 µL) were prepared in 5-mm NMR tubes, using 1mM of AA7.5 and 10µM of C-prune1 (AA7.5/C-prune1 molar ratio of 100:1) in H2O/^2H2O mixture at pH 6.8. STD spectra were acquired with 512 scans with onresonance irradiation at -0.5 ppm for selective saturation of protein resonances and off-resonance irradiation at 30 ppm for reference spectra. A train of 40 Gaussian-shaped pulses of 50 milliseconds with 1-millisecond delay between pulses were used, for a total saturation time of 2 seconds. […]
# 1H and STD spectra of AA7.5 alone were acquired as reference. […] Relative STD values were calculated by dividing STD signal intensities by the intensities of the corresponding signals in a 1D 1H NMR reference spectrum of the same sample recorded with 512 scans and similarly processed. […] To determine the per residue chemical shift perturbation upon binding and account for differences in spectral widths between ^15N and ^1H resonances, weighted average chemical shift differences, ΔδHN , were calculated for the amide ^15N and ^1H resonances, using equation: ΔδHN = ([((ΔHN))^2+((0.17×Δ^15N))^2])^((1)/(2)) [formula] where ΔH and ΔN are the differences between free and bound chemical shifts. […]
smiles,measurement,setting,value
"COc1ccc(CNc2ncnc(N3CCC[C@H](CO)C3)n2)cc1.Cl [LEO-AA7.5(S)T, (S)-(1-(4-((4-methoxybenzyl)amino)-1,3,5-triazin-2-yl)piperidin-3-yl)methanol HCl salt]",endogenous Prune1 mRNA,human PRUNE1,0.3 fold
same,binding to Prune1 protein at its Carboxyl-terminus domain,c-Prune1 (354-453),binds Prune1 protein
